Experimental data taken from the OligoGym collection.
These antisense oligonucleotides have a phosphorothioate backbone; sugars and methylation of C are not fully specified.
Note: test concentration or dose not given here.

Each sequence was assayed against AKT2. Conditions: ASO.
Work on CTCCTTGGCATCGCTGGG yielded a remaining target (mRNA or protein) (fraction of control) of 0.29.
GAGCCACACTTGTAGTCC showed a remaining target (mRNA or protein) (fraction of control) of 0.11.
With TGGTCACTTTAGCCCGTG the remaining target (mRNA or protein) (fraction of control) was ≥ 1.
For GTGAGCGACTTCATCCTT, the remaining target (mRNA or protein) (fraction of control) was 0.25.
For CCAATGAAGGAGCCGTCG, the remaining target (mRNA or protein) (fraction of control) was ≥ 1.
Sequence AGTTGATGCTGAGGAAGA has a remaining target (mRNA or protein) (fraction of control) of 0.51.
Sequence CCGCTGCTTGAGGCTGTT has a remaining target (mRNA or protein) (fraction of control) of 0.29.
Sequence TGGCATTCTGCTACGGAG has a remaining target (mRNA or protein) (fraction of control) of 0.18.
In the case of ATGATGACTTCCTTTCGC, the remaining target (mRNA or protein) (fraction of control) is reported as 0.43.
Sequence CTACGGAGAAGTTGTTTA has a remaining target (mRNA or protein) (fraction of control) of 0.42.
Sequence CCGCATCCACTCCTCCCT has a remaining target (mRNA or protein) (fraction of control) of 0.12.
GTGATGGCAGCGAGCGTG was tested, and the remaining target (mRNA or protein) (fraction of control) was 0.38.
Work on TGTGATTGTGATGGACTG yielded a remaining target (mRNA or protein) (fraction of control) of 0.3.
ATGACAAAGGTGTTGGGT gave a remaining target (mRNA or protein) (fraction of control) of 0.29.

The sequences below were run against NSMAF. Conditions: ASO.
For AGATCCCGGAAGGTTCCT, the remaining target (mRNA or protein) (fraction of control) was 0.22.
TCAAGGCAGGATGCTCTG gave a remaining target (mRNA or protein) (fraction of control) of 0.23.
Sequence GAGTGTTATCTGGACCAC has a remaining target (mRNA or protein) (fraction of control) of 0.28.
Sequence TGTGTGGCCCTGTATTCT has a remaining target (mRNA or protein) (fraction of control) of 0.38.
GTGATTCCAGTAACTGCT showed a remaining target (mRNA or protein) (fraction of control) of 0.36.
For TGTGTCCGTGATGCACAC, the remaining target (mRNA or protein) (fraction of control) was 0.24.
TACACTGACATCATGTTC was tested, and the remaining target (mRNA or protein) (fraction of control) was 0.43.
TGTTGAACATTCTATCTG showed a remaining target (mRNA or protein) (fraction of control) of 0.79.
CTGCAGCATGTAGCTCTC showed a remaining target (mRNA or protein) (fraction of control) of 0.83.
Work on TTAAAATCCGTTGCACCA yielded a remaining target (mRNA or protein) (fraction of control) of 0.55.
In the case of AATCTCTCCTTGGAGTAG, the remaining target (mRNA or protein) (fraction of control) is reported as 0.61.
In the case of TTTGTGAAGTGTCTATTG, the remaining target (mRNA or protein) (fraction of control) is reported as 0.51.
Work on ATACAGTCTCTCAAAGGA yielded a remaining target (mRNA or protein) (fraction of control) of 0.73.
Work on ATCTGTCCTCCTTGTCTC yielded a remaining target (mRNA or protein) (fraction of control) of 0.47.
With GTCTCCACAACATCTTCC the remaining target (mRNA or protein) (fraction of control) was 0.86.
Work on CTCTTCTGGAGAAAGTCC yielded a remaining target (mRNA or protein) (fraction of control) of 0.67.
TATGACAGTGGCATCTCC gave a remaining target (mRNA or protein) (fraction of control) of 0.65.
With CTTCAGGCTATTGACTAG the remaining target (mRNA or protein) (fraction of control) was 0.46.
Work on GGCTCTATGCTGTTCAAA yielded a remaining target (mRNA or protein) (fraction of control) of 0.39.
With CACAGCATATACTCTGGT the remaining target (mRNA or protein) (fraction of control) was 0.35.
ACTCGTGAAGGTGTTCAG gave a remaining target (mRNA or protein) (fraction of control) of 0.34.
TTTAGGTAGATGTCGGAA showed a remaining target (mRNA or protein) (fraction of control) of 0.52.
CCTTTCTATTTTATATGG gave a remaining target (mRNA or protein) (fraction of control) of 0.74.
For GCATGGCTACCTTCTCAT, the remaining target (mRNA or protein) (fraction of control) was 0.15.
Work on GGCTGGGATATTGAATCT yielded a remaining target (mRNA or protein) (fraction of control) of 0.72.
ATCTGCCATAGAAGCATT gave a remaining target (mRNA or protein) (fraction of control) of 0.56.
CGAGACTGCAAAATAGCT showed a remaining target (mRNA or protein) (fraction of control) of 0.32.
Sequence TTCCATGTGCAGCTTTTC has a remaining target (mRNA or protein) (fraction of control) of 0.34.
With CCTCCTTCATAGGTCAGG the remaining target (mRNA or protein) (fraction of control) was 0.74.
TGTCAGTAGTCTCTCCAG showed a remaining target (mRNA or protein) (fraction of control) of 0.25.
For TTTCCTTTCATGGTGACT, the remaining target (mRNA or protein) (fraction of control) was 0.43.
With GCCGTGCCTCCTTTTGTA the remaining target (mRNA or protein) (fraction of control) was 0.47.
For CATTTTATCTGCCCTAAG, the remaining target (mRNA or protein) (fraction of control) was 0.56.
TGGAAACACAGGGTACTG was tested, and the remaining target (mRNA or protein) (fraction of control) was 0.37.
GACTCCCATACATGAACT showed a remaining target (mRNA or protein) (fraction of control) of 0.51.

Each sequence was assayed against RAF1. Conditions: ASO.
Work on GGTGAGGGAGCGGGAGGCGG yielded a remaining target (mRNA or protein) (fraction of control) of 0.98.
For CTCGCCCGCTCCTCCTCCCC, the remaining target (mRNA or protein) (fraction of control) was ≥ 1.
In the case of TCTGGCGCTGCACCACTCTC, the remaining target (mRNA or protein) (fraction of control) is reported as 0.25.
GCTCCTGGAAGACAAAATTC was tested, and the remaining target (mRNA or protein) (fraction of control) was 0.82.
TGTGACTAGAGAAACAAGGC was tested, and the remaining target (mRNA or protein) (fraction of control) was 0.68.
Sequence GCTCCATTGATGCAGCTTGA has a remaining target (mRNA or protein) (fraction of control) of 0.63.
TCCCGCCTGTGACATGCATT was tested, and the remaining target (mRNA or protein) (fraction of control) was 0.05.
